{"source": "patent US20180249709A1", "about": "“HERBICIDE COMPOSITIONS AND METHODS FOR CONTROLLING GROWTH OF PLANTS OF THE BUCKTHORN FAMILY” (priority 2016, published 2018)", "key": {"[1]": {"test_system": "Buckthorn seeds", "test": "Seed germination of Buckthorn seeds on filter paper in Petri plates", "assay_type": "in vivo", "method": "Juglone was purchased from Sigma Aldrich and diluted in sterile water to a 10^−3 M stock solution for 24 hours at 40° C., then further diluted to obtain 10^−4, 10^−5 and 10^−6 M solutions. Seeds were previously collected from 3 different sites (Site 1: Iroquois Shoreline Woods Park in Oakville, Ontario, Canada; Site 2: Ignatius Jesuit Centre in Guelph, Ontario, Canada, and Site 3: Snyder Flats Conservation Area in Bloomingdale, Ontario, Canada) and then placed into cold stratification. For this experiment, seeds were removed from 40 day cold stratification and surface sterilization was done for 30 s in 3% hydrogen peroxide followed by two one minute sterile water rinses. Sheets of 90 mm filter paper were placed on the bottom of Petri plates, followed by 15 seeds, and then topped with another sheet of filter paper. A pipette then dispensed 2 ml of treatment or control onto each plate directly onto the top filter paper, thereby wetting the seeds and bottom filter paper as well. Five reps (plates) were done for each site at each treatment. Plates were then placed into Ziploc bags (to maintain humidity) and kept at 24° C. in the dark. Plates were checked every day for germination (i.e. emergence of the radicle). The number of germinated seeds per plate was recorded daily. Using Microsoft Excel, a graph was created to show the average number of germinated seeds per group with standard error. Statistics were done using JMP statistical software."}, "[2]": {"test_system": "Buckthorn seed radicles", "test": "Radicle elongation of germinated Buckthorn seeds over 7 days", "assay_type": "in vivo", "details": "for radicle growth between treatments of various concentrations: MANOVA repeated measures", "method": "From the seed germination study (above), the first five (5) germinated Buckthorn seeds from each group (same treatment, same site) were set aside for radicle elongation measurements (see FIG. 6). These five were placed together in new Petri plates between two new filter papers dosed with treatment (i.e. same filter setup & treatment as germination study). For each of the 75 germinated seeds (5×15 groups), the initial length of the emerged radicle was measured. The length of the radicle was then re-measured daily for a total of 7 days. […] Therefore, on Day 7 all radicles were also sacrificed and scanned on an Epson® flatbed scanner then analyzed off-label by WinRhizo™ software, which measured the full length as “Brother 1” of the inputted “root”. Using Microsoft Excel, a graph was created to show the average length of radicle 7 days after emergence with standard error, when measured by hand. WinRhizo Day 7 measurements were compared to hand-measured Day 7 measurements to check for accuracy. Another graph was created to show the average growth of the radicle over time. Statistics were done using JMP™ statistical software."}}, "note": "“Also recorded” adds a separate entry of the source."}
{"compound": "O=C1C=CC(=O)c2c(O)cccc21", "note": "[Juglone, 5-hydroxy-1,4-naphthalenedione]", "values": [{"measurement": "percentage of Buckthorn seeds that germinated, treatment vs control", "setting": "[1]; 10^-5 M Juglone", "result": "consistently significantly lower"}, {"measurement": "percentage of Buckthorn seeds that germinated, treatment vs control", "setting": "[1]; 10^-6 M Juglone", "result": "consistently significantly lower; also recorded: significantly effective in preventing seed germination"}, {"measurement": "overall effect on germination, difference between the treatments", "setting": "[1]; Day 12, Least Squares Model, control and 10^-3 to 10^-6 M Juglone, F(4,64)=6.2, p=0.003", "result": "significant difference"}, {"measurement": "percentage of Buckthorn seeds that germinated, trend with concentration", "setting": "[1]; Juglone concentration increased above 10^-5 M", "result": "appeared to increase"}, {"measurement": "colour / appearance of radicles vs control", "setting": "[2]; 10^-3 M Juglone, Day 7", "result": "darker brown/black; also recorded: possible damaging effect"}, {"measurement": "radicle elongation", "setting": "[2]; 10^-3 M Juglone, Ignatius Jesuit Centre site, MANOVA, hand-measured", "result": "limited radicle elongation significantly"}, {"measurement": "growth of radicles vs controls", "setting": "[2]; 10^-3 M Juglone, all three sites, seven days, T-tests", "result": "significantly reduced growth; also recorded: significantly reduced radicle elongation"}, {"measurement": "growth of radicles vs controls", "setting": "[2]; 10^-4 M Juglone, Iroquois Shoreline Woods Park site and Snyder Flats Conservation Area site only, T-tests", "result": "significantly reduced growth"}, {"measurement": "radicle growth among the treatments (net WinRhizo values)", "setting": "[2]; ANOVA 2-way with replication, p=0.0005", "result": "significant difference in growth"}, {"measurement": "radicle growth between treatments of various concentrations", "setting": "[2]; Ignatius Jesuit Centre site, hand-measured, F(4,19)=0.73, p=0.0264", "result": "significant difference"}, {"measurement": "radicle growth between treatments of various concentrations", "setting": "[2]; Iroquois Shoreline Woods Park site, hand-measured, F(4,20)=0.38, p=0.1485", "result": "no significant difference"}, {"measurement": "radicle growth between treatments of various concentrations", "setting": "[2]; Snyder Flats Conservation Area site, hand-measured, F(4,19)=0.17, p=0.5339", "result": "no significant difference"}, {"measurement": "growth of radicles vs controls", "setting": "[2]; more dilute concentrations (than 10^-4 M), seed from any site", "result": "Growth reduction was not achieved"}]}
